Measured values as given in patent publication US20160115225A1, “Methods of Reducing Methylglyoxal (MGO) Modification of Recombinant Proteins in Cell Culture” (AbbVie Inc., priority 2014, published 2016).

Assays:
[1] = tested on: adalimumab producing cell line 2; experiment: Glucose consumption of the culture, cell line 2; format: cell-based; conditions: Example 4
Procedure: For the bioreactor (3 L Applikon) experiments (Examples 1, 2 and 3), 3 L, bioreactors (1.5 L working volume) were initiated at 35° C. (cell line 1) and 36° C. (cell line 2), 30% DO, 200 rpm, pH of 7.1. In some of the conditions, pH was ramped down to 6.8 in three days and kept at pH 6.8 thereafter. The inclusion of pH ramp for a particular condition is indicated by the final pH in the experimental design. If the final pH is 7.1, then it indicates no pH ramp was performed, whereas if the final pH is 6.8, a pH ramp was performed on day 3 from pH 7.1 to pH 6.8. In some of the conditions, a temperature shift was performed. When temperature shift was performed, the temperature was lowered to 33° C. Again, the conditions where such a temperature shift was performed can be identified from the final temperature in the experimental design. Cultures were run in extended batch mode with the addition of a desired amount of 40% glucose stock solution was fed based on glucose measurements.
The objective of this experiment was to further evaluate the control of MGO synthesis/MGO protein modification through reduced glucose consumption in a different cell line, Cell line 2. […] As described in Example 3, extracellular MGO quantification was performed for day 7, 8 and 9 for the samples below and percentage of acidic species were quantified using WCX-10 analysis post protein A of cell culture harvests. […]

[2] = tested on: adalimumab producing cell line 1; experiment: Lys-C peptide mapping for MGO modification of adalimumab, cell line 1; format: cell-based; conditions: Example 3
Text: Typical trypsin digestion for peptide mapping cleaves a denatured, reduced and alkylated protein at the carboxyl side of the two basic amino acids, lysine and arginine. Methylglyoxal (MGO) is a small molecule metabolite derived as a glycolysis byproduct which can modify arginine residues. A modification of an arginine prevents trypsin from cutting this site and results in a mis-cleavage. The challenge of quantifying the amount of MGO modified peptide is that, it is not compared to an equivalent non-modified peptide but rather to two parental cleaved peptides. The two parental cleaved peptides likely have different ionization potential as compared to that of the modified peptide. In order to determine a truly accurate direct measurement of an MGO-modified peptide, it is compared to its non-modified counterpart and expressed as a percentage. Using endoproteinase lysine-C as an alternative enzyme, cleavages only occur at lysine residues. The result is a direct comparison of the same peptide with and without an MGO modification, which provides a high degree of accuracy in quantifying even trace levels of the modified species.
Procedure: Samples were dilated to a nominal concentration of 4 mg/mL. 8 M guanidine-HCl was added to the sample in a 3:1 ratio resulting in a 1 mg/mL concentration in 6M guanidine-HCl. […] Samples were analyzed by LC/MS peptide mapping. […] Eluting peaks were monitored using a Thermo Scientific LTQ-Orbitrap Mass Spectrometer. Specific mass traces were extracted for both modified and non-modified peptides in order to accurately quantify the total amount of MGO modification at each site. Mass spectra were also analyzed for the specific region of the chromatogram to confirm the peptide identity.
The cells were grown to maximum viable cell densities (VCD) in the range of 10-14×10^6 cells/ml for the different conditions tested. […] Samples were subsequently analyzed using Poros A for titer and WCX-10 post protein A purification. Based on the WCX-10 chromatograms, the percentages of total peak(s) area corresponding to the acidic species were quantified. […]

SMILES: O=CC[C@@H](O)[C@H](O)[C@H](O)CO [Test 2DDG, 2-Deoxy-D-Glucose]
- glucose consumption rate ([1]; 0.05 g/l 2DDG, compared to control): not significantly lower
- glucose consumption ([1]; 0.15 g/l 2DDG): reduction
- MGO modification ([2]; 2DDG 0.25 g/l alone, day 11 harvest, control 32.01%): 18.03%
- MGO modification ([2]; 2DDG and temperature shift combined with arginine supplementation and/or lower pH): substantial reduction
- MGO protein modification ([2]; 2DDG, temperature shift, lower pH and arginine supplementation all combined, day 11 harvest, control 32.01%): 0.02%
